We go through 26 compounds from patent US11866414B2, “Substituted heterocyclic compounds” (BRISTOL-MYERS SQUIBB COMPANY, priority 2021, dated 2024).

Data set [1] concerns IFNα-induced STAT phosphorylation (pSTAT5). The data set is described as follows: IFNα-induced STAT phosphorylation in human whole blood. In kind it is cell-based. The following applies: 1 h compound, 1000 U/mL IFNα A/D 15 min, CD3 positive population, read-out: Human Whole blood IFNa pSTAT5 IC50. How it is done: IFNα-Induced STAT Phosphorylation in Human Whole Blood
After an hour long incubation with compound, human whole blood (drawn with ACD-A as anticoagulant) was stimulated with 1000 U/mL recombinant human IFNα A/D (R&D Systems 11200-2) for 15 min. The stimulation was stopped by adding Fix/Lyse buffer (BD 558049). Cells were stained with a CD3 FITC antibody (BD 555916), washed, and permeabilized on ice using Perm III buffer (BD 558050). Cells were then stained with an Alexa-Fluor 647 pSTAT5 (pY694) antibody (BD 612599) for 60 min prior to analysis on the iQue Plus. The amount of pSTAT5 expression was quantitated by median fluorescence intensity after gating on the CD3 positive population.

A short description of another data set: in vitro. The following applies: human, Caco-2, pH 7.4.

For `CNC(=O)c1nnc(NC(=O)C2CC2)cc1Nc1cccc(-c2cnn(CCF)n2)c1OC` [Example 2, 6-cyclopropaneamido-4-({3-[2-(2-fluoroethyl)-2H-1,2,3-triazol-4-yl]-2-methoxyphenyl}amino)-N—(^2H3)methylpyridazine-3-carboxamide], the IC50 in data set [1] is 30 nM.

On to `CNC(=O)c1nnc(NC(=O)C2CC2)cc1Nc1cccc(-c2cnn(CC(F)F)n2)c1OC` [Example 3, 6-cyclopropaneamido-4-({3-[2-(2,2-difluoroethyl)-2H-1,2,3-triazol-4-yl]-2-methoxyphenyl}amino)-N—(^2H3)methylpyridazine-3-carboxamide], for which the half-inhibitory concentration (IC50) in data set [1] was 220 nM.

Regarding `[2H]C([2H])([2H])NC(=O)c1nnc(Nc2cc(C)n(C)n2)cc1Nc1cccc(-c2cnn(C)n2)c1OC` [Example 6, 6-[(1,5-dimethyl-1H-pyrazol-3-yl)amino]-4-{[2-methoxy-3-(2-methyl-2H-1,2,3-triazol-4-yl)phenyl]amino}-N—(^2H3)methylpyridazine-3-carboxamide], in “in vitro”, the Papp A→B at 2 h, 3 μM stood at 7.4 ×10⁻⁶ cm/s and the efflux ratio at 2 h, 3 μM was 0.9. In data set [1], the IC50 came out at 20 nM.

`[2H]C([2H])([2H])NC(=O)c1nnc(Nc2ccccn2)cc1Nc1cccc(-c2cnn(C)n2)c1OC` [Example 8, 4-{[2-methoxy-3-(2-methyl-2H-1,2,3-triazol-4-yl)phenyl]amino}-N—(^2H3)methyl-6-[(pyridin-2-yl)amino]pyridazine-3-carboxamide]: in “in vitro”, the Papp A→B at 2 h, 3 μM amounted to 1.9 ×10⁻⁶ cm/s and the efflux ratio at 2 h, 3 μM was less than 0.8. In addition, the IC50 in data set [1] turned out to be 230 nM.

With `CCn1ncc(-c2c(F)ccc(Nc3cc(NC(=O)C4CC4)nnc3C(=O)NC)c2OC)n1` [Example 10, 6-cyclopropaneamido-4-{[3-(2-ethyl-2H-1,2,3-triazol-4-yl)-4-fluoro-2-methoxyphenyl]amino}-N—(^2H3)methylpyridazine-3-carboxamide], the IC50 in data set [1] was 290 nM.

`CNC(=O)c1nnc(NC(=O)C2CC2)cc1Nc1cc(F)cc(-c2cnn(C3CC3)n2)c1OC` [Example 12, 6-cyclopropaneamido-4-{[3-(2-cyclopropyl-2H-1,2,3-triazol-4-yl)-5-fluoro-2-methoxyphenyl]amino}-N—(^2H3)methylpyridazine-3-carboxamide]: the IC50 in data set [1] amounted to 230 nM.

As to `CNC(=O)c1nnc(NC(=O)[C@@H]2CC23CC3)cc1Nc1cccc(-c2cnn(C)n2)c1OC` [Example 13, 4-{[2-methoxy-3-(2-methyl-2H-1,2,3-triazol-4-yl)phenyl]amino}-N—(^2H3)methyl-6-[(1R)-spiro[2.2]pentane-1-amido]pyridazine-3-carboxamide], the IC50 in data set [1] stood at 170 nM.

For `CNC(=O)c1nnc(NC(=O)C2CC2)cc1Nc1nccc(-c2cnn(C3CC3)n2)c1OC` [Example 14, 6-cyclopropaneamido-4-{[4-(2-cyclopropyl-2H-1,2,3-triazol-4-yl)-3-methoxypyridin-2-yl]amino}-N—(^2H3)methylpyridazine-3-carboxamide], the concentration for half-maximal inhibition (IC50) in data set [1] turned out to be 190 nM.

Regarding `CCn1ncc(-c2cc(Cl)cc(Nc3cc(NC(=O)C4CC4)nnc3C(=O)NC)c2OC)n1` [Example 15, 4-{[5-chloro-3-(2-ethyl-2H-1,2,3-triazol-4-yl)-2-methoxyphenyl]amino}-6-cyclopropaneamido-N—(^2H3)methylpyridazine-3-carboxamide], in data set [1], the half-inhibitory concentration (IC50) was determined as 470 nM.

Take `CNC(=O)c1nnc(NC(=O)C2CC2)cc1Nc1ccc(F)c(-c2cnn(C3CC3)n2)c1OC` [Example 16, 6-cyclopropaneamido-4-{[3-(2-cyclopropyl-2H-1,2,3-triazol-4-yl)-4-fluoro-2-methoxyphenyl]amino}-N—(^2H3)methylpyridazine-3-carboxamide]: the IC50 in data set [1] was 1400 nM.

Consider `CNC(=O)c1nnc(NC(=O)C2CC2)cc1Nc1cc(C)cc(-c2cnn(C)n2)c1OC` [Example 17, 6-cyclopropaneamido-4-{[2-methoxy-5-methyl-3-(2-methyl-2H-1,2,3-triazol-4-yl)phenyl]amino}-N—(^2H3)methylpyridazine-3-carboxamide], for which the IC50 in data set [1] stood at 40 nM.

On to `CNC(=O)c1nnc(NC(=O)C2CC2)cc1Nc1ccc(F)c(-c2cnn(C)n2)c1OC` [Example 18, 6-cyclopropaneamido-4-{[4-fluoro-2-methoxy-3-(2-methyl-2H-1,2,3-triazol-4-yl)phenyl]amino}-N—(^2H3)methylpyridazine-3-carboxamide], for which the IC50 in data set [1] stood at 230 nM.

In the case of `[2H]C([2H])([2H])NC(=O)c1nnc(NC(=O)C2CC2)cc1Nc1cc(F)c(C)c(-c2cnn(C)n2)c1OC` [Example 19, 6-(cyclopropanecarboxamido)-4-((5-fluoro-2-methoxy-4-methyl-3-(2-methyl-2H-1,2,3-triazol-4-yl)phenyl)amino)-N-(methyl-d3)pyridazine-3-carboxamide], in “in vitro”, the Papp A→B at 2 h, 3 μM was determined as 18.8 ×10⁻⁶ cm/s and the efflux ratio at 2 h, 3 μM was found to be 0.7. The IC50 in data set [1] came out at 430 nM.

`[2H]C([2H])([2H])NC(=O)c1nnc(NC(=O)C2CC2)cc1Nc1cccc(-c2nn(C)nc2CC)c1OC` [Example 20, 6-(cyclopropanecarboxamido)-4-((3-(5-ethyl-2-methyl-2H-1,2,3-triazol-4-yl)-2-methoxyphenyl)amino)-N-(methyl-d3)pyridazine-3-carboxamide]: in the data set “in vitro”, the Papp A→B at 2 h, 3 μM was determined as 17 ×10⁻⁶ cm/s and the efflux ratio at 2 h, 3 μM was 1.1. Besides, the IC50 in data set [1] was 210 nM.

With `[2H]C([2H])([2H])NC(=O)c1nnc(NC(=O)C2CC2)cc1Nc1cc(CC)cc(-c2cnn(C)n2)c1OC` [Example 21, 6-(cyclopropanecarboxamido)-4-((5-ethyl-2-methoxy-3-(2-methyl-2H-1,2,3-triazol-4-yl)phenyl)amino)-N-(methyl-d3)pyridazine-3-carboxamide], in the data set “in vitro”, the Papp A→B at 2 h, 3 μM was 33.6 ×10⁻⁶ cm/s and the efflux ratio at 2 h, 3 μM worked out at 0.5. Besides, the IC50 in data set [1] was found to be 230 nM.

Take `[2H]C([2H])([2H])NC(=O)c1nnc(NC(=O)C2CC2)cc1Nc1c(F)ccc(-c2cnn(C)n2)c1OC` [Example 22, 6-(cyclopropanecarboxamido)-4-((6-fluoro-2-methoxy-3-(2-methyl-2H-1,2,3-triazol-4-yl)phenyl)amino)-N-(methyl-d3)pyridazine-3-carboxamide]: in the data set “in vitro”, the Papp A→B at 2 h, 3 μM is 51.1 ×10⁻⁶ cm/s and the efflux ratio at 2 h, 3 μM turned out to be 0.7. Further, the IC50 in data set [1] was 330 nM.

As to `CNC(=O)c1nnc(NC(=O)N2CCC2)cc1Nc1cccc(-c2cnn(C)n2)c1OC` [Example 51, 6-[(azetidine-1-carbonyl)amino]-4-{[2-methoxy-3-(2-methyl-2H-1,2,3-triazol-4-yl)phenyl]amino}-N—(^2H3)methylpyridazine-3-carboxamide], the half-inhibitory concentration (IC50) in data set [1] was found to be 110 nM.

Take `CNC(=O)c1nnc(NC(=O)C2CC2)cc1Nc1cccc(-c2cnn(C)n2)c1OC` [Example 52, 6-cyclopropaneamido-4-({2-methoxy-3-[2-(^2H3)methyl-2H-1,2,3-triazol-4-yl]phenyl}amino)-N—(^2H3)methylpyridazine-3-carboxamide]: in data set [1], the IC50 was 20 nM.

For `CNC(=O)c1nnc(NC(=O)C2CC2)cc1Nc1cccc(-c2cnn(C3COC3)n2)c1OC` [Example 53, 6-cyclopropaneamido-4-({2-methoxy-3-[2-(oxetan-3-yl)-2H-1,2,3-triazol-4-yl]phenyl}amino)-N—(^2H3)methylpyridazine-3-carboxamide], the IC50 in data set [1] worked out at 170 nM.

For the compound `CNC(=O)c1nnc(NC(=O)C2CC2)cc1Nc1cccc(-c2cnn(C3CCC3)n2)c1OC` [Example 54, 4-{[3-(2-cyclobutyl-2H-1,2,3-triazol-4-yl)-2-methoxyphenyl]amino}-6-cyclopropaneamido-N—(^2H3)methylpyridazine-3-carboxamide], the IC50 in data set [1] came to 490 nM.

`CNC(=O)c1nnc(NC(=O)C2CC2)cc1Nc1ccc(C2CC2)c(-c2cnn(C)n2)c1OC` [Example 55, 6-cyclopropaneamido-4-{[4-cyclopropyl-2-methoxy-3-(2-methyl-2H-1,2,3-triazol-4-yl)phenyl]amino}-N—(^2H3)methylpyridazine-3-carboxamide]: the IC50 in data set [1] worked out at 480 nM.

Take `CNC(=O)c1nnc(NC(=O)C2CC2)cc1Nc1cccc(-c2cnn(C)n2)c1OC(F)F` [Example 56, 6-cyclopropaneamido-4-{[2-(difluoromethoxy)-3-(2-methyl-2H-1,2,3-triazol-4-yl)phenyl]amino}-N—(^2H3)methylpyridazine-3-carboxamide]: in data set [1], the IC50 stood at 290 nM.

Consider `CCN(C)C(=O)Nc1cc(Nc2nccc(-c3cnn(C)n3)c2OC)c(C(=O)NC)nn1` [Example 58, 6-{[ethyl(methyl)carbamoyl]amino}-4-{[3-methoxy-4-(2-methyl-2H-1,2,3-triazol-4-yl)pyridin-2-yl]amino}-N—(^2H3)methylpyridazine-3-carboxamide], for which the IC50 in data set [1] turned out to be 230 nM.

`CNC(=O)c1nnc(NC(=O)N(C)C(C)C)cc1Nc1nccc(-c2cnn(C)n2)c1OC` [Example 59, 4-{[3-methoxy-4-(2-methyl-2H-1,2,3-triazol-4-yl)pyridin-2-yl]amino}-N—(^2H3)methyl-6-{[methyl(propan-2-yl)carbamoyl]amino}pyridazine-3-carboxamide]: the IC50 in data set [1] stood at 250 nM.

As to `CNC(=O)c1nnc(NC(=O)C2CC2)cc1Nc1nccc(-c2cnn(C)n2)c1OC(F)F` [Example 60, 6-cyclopropaneamido-4-{[3-(difluoromethoxy)-4-(2-methyl-2H-1,2,3-triazol-4-yl)pyridin-2-yl]amino}-N—(^2H3)methylpyridazine-3-carboxamide], in data set [1], the IC50 was 130 nM.

`CC(C)(C)NCC(O)COc1cccc2c1CC(O)C(O)C2` (stereo not shown) [Nadolol, reference compound]: in “in vitro”, the Papp A→B at 2 h, 3 μM came to 2 ± 0.9 ×10⁻⁶ cm/s; the Papp B→A at 2 h, 3 μM is 2.5 ± 1.1 ×10⁻⁶ cm/s; the efflux ratio at 2 h, 3 μM was determined as 1.3.
